Laboratory results reported in the supplement of paper PMC10307832.

Key:
Assay in all cases: relative viability (nuclei count vs DMSO), 5 days (fraction); higher = more cells survive
Darinaparsin + OSI-027 = compound: C[As](C)SC[C@H](NC(=O)CC[C@H](N)C(=O)O)C(=O)NCC(=O)O [Darinaparsin] + COc1cccc2cc(-c3nc([C@H]4CC[C@H](C(=O)O)CC4)n4ncnc(N)c34)[nH]c12 [OSI-027] (partner 0.5 µM)
How it was run: (§1)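 Lung cancer cell lines, seeded in 1536-well plates, were treated the following day by pin tool with a single drug or with five library-drug doses (not always all listed) in √10 steps on top of a fixed anchor-drug dose. Cells were fixed and nuclei stained in one step after 5 days, and nuclei were counted. Relative viability is the nuclei count for treated wells divided by that for vehicle wells, reported as medians of duplicate plates.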

QS11 + Bortezomib = compound: C1CC2=C(C1)C=C(C=C2)OC3=NC(=C4C(=N3)N(C=N4)CC5=CC=C(C=C5)C6=CC=CC=C6)N[C@@H](CC7=CC=CC=C7)CO [QS11] + CC(C)C[C@H](NC(=O)[C@H](Cc1ccccc1)NC(=O)c1cnccn1)B(O)O [Bortezomib] (partner 0.002 µM)
How it was run: as §1

AZ628 + Pemetrexed = compound: CC1=C(C=C(C=C1)NC(=O)C2=CC(=CC=C2)C(C)(C)C#N)NC3=CC4=C(C=C3)N=CN(C4=O)C [AZ628] + Nc1nc2[nH]cc(CCc3ccc(C(=O)N[C@@H](CCC(=O)O)C(=O)O)cc3)c2c(=O)[nH]1 [Pemetrexed] (partner 0.2 µM)
How it was run: as §1

QS11 + Linsitinib = compound: C1CC2=C(C1)C=C(C=C2)OC3=NC(=C4C(=N3)N(C=N4)CC5=CC=C(C=C5)C6=CC=CC=C6)N[C@@H](CC7=CC=CC=C7)CO [QS11] + C[C@]1(O)C[C@@H](c2nc(-c3ccc4ccc(-c5ccccc5)nc4c3)c3c(N)nccn32)C1 [Linsitinib] (partner 1 µM)
How it was run: as §1

Cell Line	relative viability (Darinaparsin + OSI-027; first compound 0.08 µM)	relative viability (Darinaparsin + OSI-027; first compound 0.8 µM)	relative viability (Darinaparsin + OSI-027; first compound 2.53 µM)	relative viability (Darinaparsin + OSI-027; first compound 8 µM)	relative viability (QS11 + Bortezomib; first compound 0.08 µM)	relative viability (QS11 + Bortezomib; first compound 0.253 µM)	relative viability (QS11 + Bortezomib; first compound 0.8 µM)	relative viability (QS11 + Bortezomib; first compound 2.53 µM)	relative viability (QS11 + Bortezomib; first compound 8 µM)	relative viability (AZ628 + Pemetrexed; first compound 0.08 µM)	relative viability (AZ628 + Pemetrexed; first compound 0.253 µM)	relative viability (AZ628 + Pemetrexed; first compound 0.8 µM)	relative viability (AZ628 + Pemetrexed; first compound 2.53 µM)	relative viability (AZ628 + Pemetrexed; first compound 8 µM)	relative viability (QS11 + Linsitinib; first compound 0.08 µM)	relative viability (QS11 + Linsitinib; first compound 0.253 µM)	relative viability (QS11 + Linsitinib; first compound 0.8 µM)	relative viability (QS11 + Linsitinib; first compound 2.53 µM)	relative viability (QS11 + Linsitinib; first compound 8 µM)
NCI-H838	0.401	0.34	0.458	0.428	0.942	0.641	0.684	0.851	0.923	0.261	0.23	0.243	0.242	0.225	1.07	0.879	0.7	0.837	0.851
NCI-H661	0.722	0.677	0.658	0.69	0.718	0.685	0.685	0.912	0.919	0.95	0.979	0.867	0.848	0.822	0.522	0.681	0.556	0.408	0.549
NCI-H1734	0.684	0.595	0.621	0.739	0.932	0.913	0.848	0.822	0.738	0.375	0.423	0.397	0.391	0.34	0.897	0.988	0.851	0.825	0.848
HCC-827	0.705	0.837	0.626	0.766	1.06	1.09	0.937	0.962	1.04	0.258	0.209	0.256	0.314	0.226	0.977	1.04	0.877	0.929	0.821
201T	0.963	0.701		0.93	1.12	1.09	0.921	1.16	0.961	0.347	0.345	0.308	0.339	0.352	1.01	1.01	0.847	1.01	0.888
HCC-44	0.511	0.514	0.454	0.378	0.885	0.76	0.681	0.766	0.697	0.629	0.682	0.643	0.706	0.679	0.79	0.647	0.532	0.549	0.531
NCI-H650	0.584	0.531	0.533	0.604	0.681	0.625	0.815	0.819	0.888	0.947	1.15	1.08	1.18	1.11	0.81	0.943	0.859	0.87	0.929
PC-3 [JPC-3]	0.844	0.781	0.734	0.788	0.827	0.88	0.767	0.828	0.678	1.29	0.984	1.22	1.16	0.925	0.939	0.978	0.964	0.947	0.97
CAL-12T	0.756	0.539	0.737	0.569	0.893	0.865	0.809	1.07	1.03	1.37	1.18	1.15	1.33	0.716	1.01	0.693	0.695	0.688	0.7
NCI-H322M	0.611	0.531	0.545	0.573	1.31	1.04	1.27	1.4	1.63	0.726	0.664	0.604	0.642	0.558	0.93	0.914	0.931	1.02	0.936
LCLC-103H	0.481	0.465	0.414	0.531	1.04	1.1	0.811	1.07	0.891	0.423	0.464	0.445	0.437	0.402	1.08	1.1	0.74	1.21	1.09
A-427	0.424	0.445	0.466	0.582	0.852	0.96		0.999	0.858	1.12	0.97	1.01	0.957	0.609	1.12	1.1		1.14	1.09
NCI-H1563	0.752	0.735	0.71	0.708	0.822	0.825	0.853	0.769	0.722	0.773	0.827	0.86	0.756	0.764	1.16	1.3	1.26	1.34	1.32
NCI-H1355	0.432	0.352	0.34	0.372	1.2	1.19	0.862	1.21	1.13	1.06	1.02	0.843	0.996	0.716	0.762	0.791	0.671	0.84	0.712
